US12264170B2, “Antimicrobial organosilanes” (TOPIKOS SCIENTIFIC, INC., priority 2019, dated 2025)
Converted amounts (≈) assume the structure as drawn.

Key:
[1] = system: Pseudomonas aeruginosa ATCC 27853; assay: MIC microdilution assay (Example 32); format: cell-based; conditions: Pseudomonas aeruginosa, ATCC27853; P. aeruginosa ATCC 27853 (quality control); CAMHB; 35±2° C. 18 to 20 hours; two values given; read-out: MIC
Procedure: (§1) Strain IDs starting with “ATCC” were acquired from the American Type Culture Collection (Manassas, VA), strain IDs starting with “Eurofins” were acquired from Eurofins (Herndon, VA), while strain IDs starting with “CDC” were acquired from the Centers for Disease Control and Prevention (Atlanta, GA). All strains were maintained as −80° C. frozen glycerol stocks. S. aureus and P. aeruginosa were grown overnight on Tryptic Soy Agar (TSA) plates at 35±2° C., ambient atmosphere, while S. pyogenes was grown overnight on TSA+5% defibrinated sheep blood at 35±2° C., 5% CO2. C. jejuni was grown for 48 hours on TSA+5% defibrinated sheep blood at 35±2° C., in a microaerophilic environment generated by CampyGen sachet. All fungal species (i.e. C. albicans and C. auris) were grown overnight on Sabouraud Dextrose Agar (SDA) plates at 35±2° C., ambient atmosphere.
(§2) Test article Compound 1 (batch #7G30A9.203) was stored at 4° C. The antibiotic Tobramycin and antifungal Amphotericin B were used as quality control (QC) compounds for the MIC assay. Stock solutions of 3.2 mg/mL Tobramycin (Sigma-Aldrich, cat #T1783-500MG) and 3.2 mg/mL Amphotericin B (CP Lab Chemicals, cat #TOK-A007-1G) were prepared in sterile ultrapure water.
(§3) For bacteria strains, a few colonies of each strain were collected with a sterile swab and used to make a McFarland 0.5 standard solution (approximately 1×10^8 CFU/mL) in sterile PBS. The McFarland was then diluted 1:180 in Cation Adjusted Muller-Hinton Broth (CAMHB) for S. aureus and P. aeruginosa. S. pyogenes McFarland was diluted 1:180 in CAMHB+5% defibrinated sheep blood, while C. jejuni McFarland was diluted 1:180 in CAMHB+5% laked horse blood. 90 μL of this inoculum was combined with 10 μL of the 10× test article in a 96-well plate for a final concentration of 1×.
(§4) Except for C. jejuni, all bacterial-strain MIC 96-well plates were incubated at 35±2° C. for 18 to 20 hours, ambient atmosphere. C. jejuni was incubated at 35±2° C. for 48 hours, under microaerophilic condition. All Candida MIC 96-well plates were incubated at 35±2° C. for 24 to 48 hours, ambient atmosphere, until growth in control wells were observed. After incubation, the 96-well plates were examined visually and on a spectrophotometer at absorbance OD650. MIC is defined as the lowest concentration of a compound in which no visible growth is observed.

[2] = system: Acinetobacter baumannii Eurofins 1674627; assay: MIC microdilution assay (Example 32); format: cell-based; conditions: Acinetobacter baumannii; A. baumannii Eurofins 1674627; 35±2° C. 18 to 20 hours; two values given; read-out: MIC
Procedure: as §1, §2, §3, §4

Candida auris CDC 0381 = assay: MIC microdilution assay; format: cell-based; conditions: Candidozyma auris, CDC0381; C. auris CDC 0381; RPMI media; 35±2° C. 24 to 48 hours; two values given; read-out: MIC
Procedure: (§5) Strain numbers starting with “ATCC” were acquired from the American Type Culture Collection (Manassas, VA), while strain numbers starting with “CDC” were acquired from the Centers for Disease Control and Prevention (Atlanta, GA). All strains were maintained as −80° C. frozen glycerol stocks. S. aureus and P. aeruginosa were grown overnight on Tryptic Soy Agar (TSA) plates at 35±2° C., ambient atmosphere, while S. pyogenes was grown overnight on TSA+5% defibrinated sheep blood at 35±2° C., 5% CO2. All fungal species (i.e. C. albicans, C. auris and C. herbarum) were grown on Sabouraud Dextrose Agar (SDA) plates. C. herbarum was grown at 25±2° C. for 5 to 7 days, while all other fungal strains were grown at 35±2° C. overnight.
as §2, with “Test articles” for “Test article”, “Compound 2” for “Compound 1”, “(batch #2G13A0.368) and Compound 23 (batch #2G17A0.372) were received and” for “(batch #7G30A9.203) was”
as §3, with “aeruginosa, and” for “aeruginosa. S. pyogenes McFarland was diluted 1:180”, “[…]+5%” for “CAMHB+5%”, “blood for S. pyogenes.” for “blood, while C. jejuni McFarland was diluted 1:180 in CAMHB+5% laked horse blood.”
(§6) For the yeasts C. albicans and C. auris, a McFarland 0.5 standard solution in sterile PBS was similarly prepared (approximately 1×10^6 CFU/mL) and was subsequently diluted 1:180 in RPMI 1640 media buffered with 0.165 M MOPS at pH 7.0 (herein referred to as “RPMI media”). 90 μL of the Candida inoculum was combined with 10 μL of the 10× test article in a 96-well plate for a final concentration of 1×.
(§7) All bacterial-strain MIC 96-well plates were incubated at 35±2° C. for 18 to 20 hours, while all Candida MIC 96-well plates were incubated at 35±2° C. for 24 to 48 hours. C. herbarum MIC 96-well plates were incubated at 25±2° C. for 3 to 5 days, until growth was visible in the growth control wells. After incubation, the 96-well plates were examined visually and on a spectrophotometer at absorbance OD650. MIC is defined as the lowest concentration of a compound in which no visible growth is observed.

[3] = system: Candida albicans ATCC 90028; assay: MIC microdilution assay; format: cell-based; conditions: Candida albicans, ATCC90028; C. albicans ATCC 90028; RPMI media; 35±2° C. 24 to 48 hours; two values given; read-out: MIC
Procedure: as §5
as §2, with “Test articles” for “Test article”, “Compound 2” for “Compound 1”, “(batch #2G13A0.368) and Compound 23 (batch #2G17A0.372) were received and” for “(batch #7G30A9.203) was”
as §3, with “aeruginosa, and” for “aeruginosa. S. pyogenes McFarland was diluted 1:180”, “[…]+5%” for “CAMHB+5%”, “blood for S. pyogenes.” for “blood, while C. jejuni McFarland was diluted 1:180 in CAMHB+5% laked horse blood.”
as §6, §7

P. aeruginosa ATCC 27853 = assay: MIC microdilution assay; format: cell-based, Pseudomonas aeruginosa; conditions: Pseudomonas aeruginosa, ATCC27853, CAMHB, 35±2° C. 18 to 20 hours, two values given, read-out: MIC
Procedure: as §5
as §2, with “Test articles” for “Test article”, “Compound 2” for “Compound 1”, “(batch #2G13A0.368) and Compound 23 (batch #2G17A0.372) were received and” for “(batch #7G30A9.203) was”
as §3, with “aeruginosa, and” for “aeruginosa. S. pyogenes McFarland was diluted 1:180”, “[…]+5%” for “CAMHB+5%”, “blood for S. pyogenes.” for “blood, while C. jejuni McFarland was diluted 1:180 in CAMHB+5% laked horse blood.”
as §7, with “MIC is defined as the lowest concentration of a compound in which no visible growth is observed.” left out

Candida auris CDC 0385 = assay: MIC microdilution assay (Example 32); format: cell-based; conditions: Candidozyma auris, CDC0385; C. auris CDC 0385; RPMI media; 35±2° C. 24 to 48 hours; two values given; read-out: MIC
Procedure: as §1, §2, §3, §6, §4

[4] = system: Candida albicans ATCC 90028; assay: MIC microdilution assay (Example 32); format: cell-based; conditions: Candida albicans, ATCC90028; C. albicans ATCC 90028 (quality control); RPMI media; 35±2° C. 24 to 48 hours; two values given; read-out: MIC
Procedure: as §1, §2, §3, §6, §4

- MIC [1]: 0.25 µg/mL (≈ 0.535 µM)
- MIC [2]: 1 µg/mL (≈ 2.14 µM)
- MIC (Candida auris CDC 0381): > 32 µg/mL
- MIC [3]: > 32 µg/mL
- MIC (P. aeruginosa ATCC 27853): 0.25 µg/mL (≈ 0.535 µM)
- MIC (Candida auris CDC 0385): > 32 µg/mL
- MIC [4]: > 32 µg/mL
Compound: NC[C@H]1O[C@H](O[C@H]2[C@H](O)[C@@H](O[C@H]3O[C@H](CO)[C@@H](O)[C@H](N)[C@H]3O)[C@H](N)C[C@@H]2N)[C@H](N)C[C@@H]1O [Tobramycin]
